# Source: article PMC12865225 (Clinical and Translational Science, 2026)
# Marks after values point to notes of the source that are not given here.
# Columns and labels:
# BCRP = target: T1, BCRP (Homo sapiens, UniProt Q9UNQ0); experiment: BCRP inhibition, rosuvastatin transport in HEK293 membrane vesicles; format: biochemical; settings: R = I gut/IC50, FDA cut-off ≥ 10
# T1 construct: made in house; host or cells: membrane vesicles from HEK293 cells expressing the transporter
# T1 sequence (Q9UNQ0 1-655): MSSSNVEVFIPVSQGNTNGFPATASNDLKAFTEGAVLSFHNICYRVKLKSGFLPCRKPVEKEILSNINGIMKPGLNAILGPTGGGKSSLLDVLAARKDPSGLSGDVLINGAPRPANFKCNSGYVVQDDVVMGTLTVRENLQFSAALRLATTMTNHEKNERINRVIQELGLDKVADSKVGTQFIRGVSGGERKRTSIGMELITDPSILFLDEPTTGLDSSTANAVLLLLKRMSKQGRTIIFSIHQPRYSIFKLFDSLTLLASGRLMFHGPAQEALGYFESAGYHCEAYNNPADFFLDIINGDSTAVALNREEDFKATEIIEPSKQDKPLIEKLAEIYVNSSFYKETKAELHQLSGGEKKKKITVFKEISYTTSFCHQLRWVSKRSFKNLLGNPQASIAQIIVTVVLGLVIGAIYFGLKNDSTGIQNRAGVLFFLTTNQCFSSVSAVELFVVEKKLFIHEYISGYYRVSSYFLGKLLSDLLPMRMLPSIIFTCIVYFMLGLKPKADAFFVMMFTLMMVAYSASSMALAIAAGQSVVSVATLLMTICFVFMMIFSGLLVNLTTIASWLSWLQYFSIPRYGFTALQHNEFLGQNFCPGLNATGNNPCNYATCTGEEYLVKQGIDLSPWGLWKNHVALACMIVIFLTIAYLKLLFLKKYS
# Method: Membrane vesicles, 5 μL (7.5 μg of total protein), prepared as previously reported, were aliquoted to wells of a conical‐shaped 96‐well plate. The plate was incubated for 10 min at +37°C before the initiation of transport by adding 25 μL of TS‐buffer (10 mM Tris, 250 mM sucrose, pH adjusted to 7.4 with HEPES) containing magnesium chloride (10 mM final in the reaction), adenosine triphosphate (ATP) or adenosine monophosphate (AMP), 4 mM final in the reaction, and the transporter substrate and inhibitor. Each experiment included triplicate samples for both ATP and AMP samples. The concentrations of rosuvastatin and N‐methyl‐quinidine were 1 μM in the BCRP and P‐gp vesicle inhibition assays, respectively. The transport reaction times were 1 and 2 min for BCRP and P‐gp, respectively. […] The transport reactions were quenched by adding 200 μL of cold TS‐buffer to each well and transferring the samples to a 96‐multiwell 1.0 μm glass fiber filter plate (Merck Millipore, Darmstadt, Germany) kept under vacuum. […]
# For the inhibition data analysis, the average of measured concentrations in the control cells was subtracted from the average of measured concentrations in transporter‐expressing cells for each inhibitor concentration and then normalized to the vehicle sample that represents 100% transport activity. […]
# P-gp = target: T2, P-gp (Homo sapiens, UniProt P08183); experiment: P-gp inhibition, N-methyl-quinidine transport in HEK293 membrane vesicles; format: biochemical; settings: for Calculated R-value P-gp: R = I gut/IC50, FDA cut-off ≥ 10
# T2 construct: made in house; host or cells: membrane vesicles from HEK293 cells expressing the transporter
# T2 sequence (P08183 whole entry): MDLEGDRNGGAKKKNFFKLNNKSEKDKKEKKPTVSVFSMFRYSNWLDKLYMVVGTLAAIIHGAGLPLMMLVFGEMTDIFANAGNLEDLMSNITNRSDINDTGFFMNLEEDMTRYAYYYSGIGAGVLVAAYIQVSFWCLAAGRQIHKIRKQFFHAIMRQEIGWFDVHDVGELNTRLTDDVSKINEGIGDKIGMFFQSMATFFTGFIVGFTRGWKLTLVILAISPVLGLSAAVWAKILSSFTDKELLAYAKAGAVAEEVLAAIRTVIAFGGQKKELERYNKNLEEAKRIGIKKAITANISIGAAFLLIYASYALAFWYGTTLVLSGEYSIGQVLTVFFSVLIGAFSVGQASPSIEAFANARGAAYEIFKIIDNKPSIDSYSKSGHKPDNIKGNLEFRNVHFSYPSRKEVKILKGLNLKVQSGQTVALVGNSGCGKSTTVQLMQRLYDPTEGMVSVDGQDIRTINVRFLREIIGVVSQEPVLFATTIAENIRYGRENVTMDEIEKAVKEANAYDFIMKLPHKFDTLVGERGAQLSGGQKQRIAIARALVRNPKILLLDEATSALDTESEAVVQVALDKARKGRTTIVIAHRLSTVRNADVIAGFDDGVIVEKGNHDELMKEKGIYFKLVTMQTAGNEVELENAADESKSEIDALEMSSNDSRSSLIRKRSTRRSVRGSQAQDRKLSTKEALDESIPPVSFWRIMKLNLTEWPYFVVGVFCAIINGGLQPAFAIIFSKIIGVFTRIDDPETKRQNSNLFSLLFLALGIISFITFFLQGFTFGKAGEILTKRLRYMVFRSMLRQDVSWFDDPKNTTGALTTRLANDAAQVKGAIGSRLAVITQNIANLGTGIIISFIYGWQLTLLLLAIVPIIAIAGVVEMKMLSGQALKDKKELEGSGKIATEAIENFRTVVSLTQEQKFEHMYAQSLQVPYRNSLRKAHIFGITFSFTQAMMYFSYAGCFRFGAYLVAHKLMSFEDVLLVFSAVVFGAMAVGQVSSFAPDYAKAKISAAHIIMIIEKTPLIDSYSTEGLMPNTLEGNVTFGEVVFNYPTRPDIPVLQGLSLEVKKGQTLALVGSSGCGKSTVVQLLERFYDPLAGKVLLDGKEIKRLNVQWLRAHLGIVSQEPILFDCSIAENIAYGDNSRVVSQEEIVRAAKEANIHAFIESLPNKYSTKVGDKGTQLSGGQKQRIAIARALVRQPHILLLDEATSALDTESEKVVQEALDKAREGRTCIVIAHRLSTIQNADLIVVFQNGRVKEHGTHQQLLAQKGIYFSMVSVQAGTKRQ
# Method: Membrane vesicles, 5 μL (7.5 μg of total protein), prepared as previously reported, were aliquoted to wells of a conical‐shaped 96‐well plate. The plate was incubated for 10 min at +37°C before the initiation of transport by adding 25 μL of TS‐buffer (10 mM Tris, 250 mM sucrose, pH adjusted to 7.4 with HEPES) containing magnesium chloride (10 mM final in the reaction), adenosine triphosphate (ATP) or adenosine monophosphate (AMP), 4 mM final in the reaction, and the transporter substrate and inhibitor. Each experiment included triplicate samples for both ATP and AMP samples. The concentrations of rosuvastatin and N‐methyl‐quinidine were 1 μM in the BCRP and P‐gp vesicle inhibition assays, respectively. The transport reaction times were 1 and 2 min for BCRP and P‐gp, respectively. […] The transport reactions were quenched by adding 200 μL of cold TS‐buffer to each well and transferring the samples to a 96‐multiwell 1.0 μm glass fiber filter plate (Merck Millipore, Darmstadt, Germany) kept under vacuum. Wells were further washed four times with cold TS‐buffer, after which the plate was dried under vacuum. The compounds were eluted from the plate by applying 100 μL of 75% methanol containing 0.1% formic acid to each well and incubating at 250 RPM for 30 min before centrifuging the samples to an analysis plate at 2800 g for 2 min. For the rosuvastatin samples, the elution solvent contained rosuvastin‐d6 as the internal standard.
# For the inhibition data analysis, the average of measured concentrations in the control cells was subtracted from the average of measured concentrations in transporter‐expressing cells for each inhibitor concentration and then normalized to the vehicle sample that represents 100% transport activity. Equation (1) was fit to the inhibition data. In Equation (1), Inhibition represents the percent inhibition of transporter‐mediated uptake at an inhibitor concentration of I and IC50 is the half‐maximal inhibitory concentration. (1) Inhibition=100%−100%/1+10^logIC50−logI
structure (smiles),measurement,setting,value
Cc1onc(-c2c(Cl)cccc2Cl)c1C(=O)N[C@@H]1C(=O)N2[C@@H]1SC(C)(C)[C@@H]2C(=O)O [Dicloxacillin],Calculated R-value BCRP,BCRP,51 ^b
same,Calculated R-value P-gp,P-gp,33 ^b
same,inhibition of P-gp transport at the highest concentration,P-gp; highest concentration,almost completely inhibited
Cc1onc(-c2c(F)cccc2Cl)c1C(=O)N[C@@H]1C(=O)N2[C@@H]1SC(C)(C)[C@@H]2C(=O)O [Flucloxacillin],Calculated R-value BCRP,BCRP,23 ^b
same,IC50,"P-gp; 1 μM N-methyl-quinidine, 2 min, membrane vesicles",≥ 833 µM
same,Calculated R-value P-gp,P-gp,11 ^b
same,reduction of P-gp activity,P-gp; highest tested concentration of 2100 μM,65%
